Assay results reported in patent US20110136844A1, “METHODS FOR INHIBITING DYRK1A TO TREAT CENTRAL NERVOUS SYSTEM DISEASES AND DISORDERS” (MediProPharma, Inc., priority 2009, published 2011).
Marks after values point to notes of the source that are not given here.

Columns and labels:
[1] = Plasma pharmacokinetics after single dose in normal rats; assay type: in vivo, Sprague-Dawley rats; details: rat plasma, i.v. 10 mg/kg
Method: (§1) (IV) Pharmacokinetic Studies
(§2) The pharmacokinetic studies in Sprague-Dawley rats were performed using the protocols developed by WuXi AppTec (St. Paul, Minn., USA, and Shanghai, China. http://www.apptecls.com/).

[2] = Brain-plasma pharmacokinetics after single 10 mg/kg bolus i.v. injection in normal rats; assay type: in vivo, Sprague-Dawley rats; details: rat, 10 mg/kg i.v., the data is the value of AUC(inf)
Method: as §1, §2
The brain exposure of the compound of Example 1 is about […] higher than that required for inhibition of DYRK1A, with a Kd and IC50 at about 1 uM, or 280 ng/mL.

Cc1nc2c(c3c1[nH]c1ccccc13)C(=O)CC(C)(C)C2 [Example 1, 3,3,6-trimethyl-2,3,4,7-tetrahydroindolo[2,3-c]quinolin-1-one]
Co [1]: 4100 ng/mL
AUC0-t of Plasma ([2]; time 8 h): 2350^b ng · h/mL
AUC0-t of Plasma ([2]; time 24 h): 2350^b ng · h/mL
